What all share (type): in vivo
Details in all cases: mortality

Experiment [1] concerns cotton aphid (Aphis gossypii). In words: Aphis gossypii test (sprayed infested cotton leaves). How it is done: (§1) To produce a suitable preparation of active compound, 1 part by weight of active compound is mixed with the stated amount of solvent and emulsifier, and the concentrate is diluted with emulsifier-containing water to the desired concentration.
Cotton leaves (Gossypium hirsutum) which are heavily infested by the cotton aphid (Aphis gossypii) are treated by being sprayed with the preparation of the active compound at the desired concentration.
(§2) After the specified period of time, the mortality in % is determined. 100% means that all the aphids have been killed; 0% means that none of the aphids have been killed.

The test system of experiment [2] is larvae of the fall army worm (Spodoptera frugiperda). The experiment in a line: Spodoptera frugiperda test (sprayed cabbage leaves infested with larvae). The method, then: as §1
Cabbage leaves (Brassica oleracea) are treated by being sprayed with the preparation of the active compound at the desired concentration and are infested with larvae of the fall army worm (Spodoptera frugiperda) as long as the leaves are still moist.
(§3) After the specified period of time, the mortality in % is determined. 100% means that all the caterpillars have been killed; 0% means that none of the caterpillars have been killed.

Experiment [3] has as its system larvae of the beet army worm (Spodoptera exigua). The experiment in a line: Spodoptera exigua test (sprayed cabbage leaves infested with larvae). How it is done: as §1
Cabbage leaves (Brassica oleracea) are treated by being sprayed with the preparation of the active compound at the desired concentration and are infested with larvae of the beet army worm (Spodoptera exigua) as long as the leaves are still moist.
as §3

Experiment [4] deals with green peach aphid (Myzus persicae). In words: Myzus persicae test (sprayed infested cabbage leaves). How it is done:
as §1
Cabbage leaves (Brassica oleracea) which are heavily infested by the green peach aphid (Myzus persicae) are treated by being sprayed with the preparation of the active compound at the desired concentration.
as §2

Molecules are shown by their SMILES.

Consider five compounds from patent US20110003688A1, “Pesticidal Compound Mixtures” (Bayer CropScience AG, priority 2007, published 2011).

Regarding `CC1(C)C(C=C(Cl)Cl)C1C(=O)OC(C#N)c1ccc(F)c(Oc2ccccc2)c1` (centres unmarked) [Cyfluthrin, cyfluthrin], the “Efficacy in % after 1 day” value in experiment [1] (0.8 ppm) came out at 25%.
With `CC1(C)[C@H](C(=O)O[C@H](C#N)c2cccc(Oc3ccccc3)c2)[C@@H]1C=C(Br)Br` [Deltamethrin, deltamethrin], the “Efficacy in % after 4 days” value is reported as 70% in experiment [2] (0.8 ppm) and 0% in experiment [3] (0.16 ppm). Moreover, the “Efficacy in % after 1 day” value in experiment [4] (0.8 ppm) is reported as 50%.
`CC[S+]([O-])c1c(C#N)nn(-c2c(Cl)cc(C(F)(F)F)cc2Cl)c1N` (centres unmarked) [Ethiprole, ethiprole]: the “Efficacy in % after 4 days” value in experiment [2] (4 ppm) came out at 40%; in experiment [3] (0.8 ppm), 0%. Also, the “Efficacy in % after 1 day” value in experiment [1] (4 ppm) is 30%; in experiment [4] (4 ppm) it was 0%. Besides, the “Efficacy in % after 6 days” value in experiment [4] (4 ppm) is 0%.
Regarding `CC1(C)[C@H](C(=O)O[C@H](C#N)c2cccc(Oc3ccccc3)c2)[C@@H]1/C=C(\Cl)C(F)(F)F` [L-Cyhalothrin, lambda-cyhalothrin], the “Efficacy in % after 6 days” value in experiment [4] (0.8 ppm) was determined as 45%.
Same read-out and setting: the result for `CC1(C)C(C=C(Cl)Cl)C1C(=O)OC(C#N)c1ccc(F)c(Oc2ccccc2)c1` (stereo not drawn) [β-Cyfluthrin, beta-cyfluthrin] reads 75%.
